Laboratory results published in ChEMBL document CHEMBL1138728, “QSAR modelling of HIV-1 reverse transcriptase inhibition by benzoxazinones using a combination of P_VSA and pharmacophore feature descriptors” (Bioorg Med Chem Lett, 2004).

Target: Human immunodeficiency virus type 1 reverse transcriptase (Human immunodeficiency virus 1, UniProt Q72547)
Assay: Inhibitory activity against HIV-1 reverse transcriptase

Structure (SMILES): CC(=O)Nc1ccc2c(c1)C(C#CC(C)C)(C(F)(F)F)OC(=O)N2 (stereo unspecified)
- IC50: < 2 µM
